Measured values published in patent publication US20130059859A1, “PREDICTIVE BIOMARKERS FOR PI3K/AKT KINASE PATHWAY INHIBITOR EFFICACY” (GENENTECH, INC., priority 2010, published 2013).

Assays:
[1] = tested on: PTEN null breast cancer cell lines; experiment: Cell line sensitivity to AKT inhibitor (IC50); format: cell-based
FOXO3a = FOXO3a immunofluorescence localization (cytoplasm-to-nucleus translocation) assay; format: cell-based
Method: Tissue culture cells are plated in 96 well culture plates in culture medium with 10% (full) serum. 24 hours later, cells are dosed with 1 uM of indicated drug for 6 hours at which point cells are directly fixed in 4% formaldehyde in protein-free phosphate-buffered saline (PBS) for 20 min at 37° C. Plates are washed and then cells permeabilized by a 10 min incubation in ice cold methanol. Plates are washed to remove methanol and incubated with anti-FOXO3a antibody (Cell Signaling Technology, catalog #2497, clone 75D8) in antibody dilution buffer (1% BSA, 0.3% Triton X-100 in PBS) at a 1:20 dilution of primary antibody, along with Hoechst nuclear stain (1:10,000 dilution). Cells are incubated overnight at 4° C. Plates are washed to remove primary antibody and then incubated with secondary antibody, goat anti-rabbit conjugated to Alexa-flour 488 dye (Invitrogen) for 1 hr at ambient temperature in the dark. Plates are washed with PBS, sealed with black plate sealer and analyzed on the Cellomics HCS ArrayScan Imager using the Cytoplasm-to-Nucleus translocation bioapplication (Thermo Scientific).

breast cancer cell lines = details: panel of breast cancer cell lines; Hoeflich et al 2009; cited from earlier work
[2] = PI3K/AKT inhibitor resistant cell lines, FIG. 8
[3] = cell lines sensitive to PI3K/AKT inhibitors, FIG. 7
[4] = resistant lines with PI3K/AKT activation (MB-468 with PTEN loss), FIG. 8

| IC50 ([1]; resistant cell lines with PTEN null status, FIG. 5) | SMILES | sensitivity of cell line to AKT inhibitor ([1]; MDA-MB-468, cell line with PTEN loss) | FOXO3a localization post-treatment (FOXO3a; BT474 cells, FIG. 2B) | FOXO3a localization upon treatment (FOXO3a; [2]) | FOXO3a localization upon treatment (FOXO3a; [3]) | FOXO3a localization upon treatment (FOXO3a; [4]) | FOXO3a localization upon treatment (FOXO3a; cell lines resistant to GDC-0941, FIG. 10B) | FOXO3a localization upon treatment (FOXO3a; cell lines sensitive to GDC-0941, FIG. 10A) | activity at the concentration used (breast cancer cell lines) | FOXO3a localization upon treatment (FOXO3a; breast cancer cell lines, FIGS. 11A-C) |
| --- | --- | --- | --- | --- | --- | --- | --- | --- | --- | --- |
| > 20 µM | CC(C)NC[C@@H](C(=O)N1CCN(c2ncnc3c2[C@H](C)C[C@H]3O)CC1)c1ccc(Cl)cc1 [GDC-0068, (S)-2-(4-chlorophenyl)-1-(4-((5R,7R)-7-hydroxy-5-methyl-6,7-dihydro-5H-cyclopenta[d]pyrimidin-4-yl)piperazin-1-yl)-3-(isopropylamino)propan-1-one] | resistant | translocated to the nucleus | remains nuclear | translocated from cytoplasm to nucleus | more complete relocalization to nucleus | – | – | – | – |
| – | CS(=O)(=O)N1CCN(Cc2cc3nc(-c4cccc5[nH]ncc45)nc(N4CCOCC4)c3s2)CC1 [GDC-0941, 2-(1H-Indazol-4-yl)-6-(4-methanesulfonyl-piperazin-1-ylmethyl)-4-morpholin-4-yl-thieno[3,2-d]pyrimidine] | – | – | remains nuclear | translocated from cytoplasm to nucleus | more complete relocalization to nucleus | remains nuclear | relocalizes from cytoplasm to nucleus | – | – |
| – | O=C(NOC[C@H](O)CO)c1ccc(F)c(F)c1Nc1ccc(I)cc1F [PD901, reference compound] | – | – | – | – | – | – | – | active | unchanged |
